Data from paper PMC12261219, “Comparative Evaluation of Thiol- and Amine-Conjugating Moieties for Endogenous Albumin Binding after Intravenous Administration” (ACS Pharmacology & Translational Science, 2025).
Several values for one entry are separate records, joined by “and”; a condition that tells them apart may be missing. Identical values can stand only once.

Tests used:
IgG = experiment: SEC-ICP-MS with single serum protein solution: IgG; assay type: binding, human; details: 200 μM IgG, 100 μM compound, 100 mM PB pH 7.4, 37 °C, 2 h
Method: (§1) All investigated proteins were purchased from commercial suppliers: Albumin (Sigma-Aldrich, A8763), IgG (Athens Research, 16–16–090707), α1-antitrypsin (Sigma-Aldrich, A6150) and apotransferrin (Sigma-Aldrich, T1147). […] The compound stocks were diluted into the protein solution to reach a final concentration of 100 μM (27 μL protein and 3 μL compound). The samples were incubated at 37 °C for 2 h and analyzed as described for the SEC-ICP-MS studies (Tables S6 and S7).

α1-antitrypsin = biological target: T1, α1-antitrypsin (Homo sapiens, UniProt P01009); experiment: SEC-ICP-MS with single serum protein solution: α1-antitrypsin; assay type: binding; details: 200 μM α1-antitrypsin, 100 μM compound, 100 mM PB pH 7.4, 37 °C, 2 h
T1 construct: purchased Sigma-Aldrich A6150
T1 sequence (P01009 25-418): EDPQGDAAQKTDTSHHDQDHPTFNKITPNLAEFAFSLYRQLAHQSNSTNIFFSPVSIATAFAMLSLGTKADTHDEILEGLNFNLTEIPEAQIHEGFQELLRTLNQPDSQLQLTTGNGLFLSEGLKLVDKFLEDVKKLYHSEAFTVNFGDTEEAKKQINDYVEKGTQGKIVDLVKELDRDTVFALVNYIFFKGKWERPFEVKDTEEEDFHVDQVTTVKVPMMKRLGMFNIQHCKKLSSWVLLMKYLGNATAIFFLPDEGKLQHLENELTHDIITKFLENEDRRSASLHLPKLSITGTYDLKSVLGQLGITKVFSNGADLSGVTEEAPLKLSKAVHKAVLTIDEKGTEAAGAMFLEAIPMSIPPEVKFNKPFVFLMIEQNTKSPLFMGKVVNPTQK
Method: as §1

[1] = Hydrolytic stability in buffer (HPLC); assay type: physicochemical; details: for Intact compound after 25 h: 0.5 mM
Method: The samples were incubated at 20 °C and measured over 25 h. Reversed phase high-performance liquid chromatography (RP-HPLC) runs were performed using a Waters Acquity UPLC BEH C18 column (130 Å, 1.7 μm, 3 mm × 50 mm) on a Dionex Thermo Scientific UltiMate 3000 HPLC system, equipped with a HPG-3400RS binary pump and a DAD-3000 UV–vis detector. Chromatograms were evaluated at a wavelength of 220 nm. Milli-Q water (mobile phase A) and acetonitrile (mobile phase B), both containing 0.1% TFA, were used as eluents. The flow rate was consistent at 0.6 mL/min for all measurements using the following gradient: 0–0.5 min A 95:5 B, 0.5–5.5 min linear gradient to A 5:95 B, 5.5–6.5 min A 5:95 B, 6.5–9.2 min A 95:5 B. The same conditions were applied for stability measurements in 100 mM PB at pH 5.5 and 6.5 as well as in 20 mM HEPES and MOPS at pH 7.4. RP-HPLC-MS analyses of the same samples after the stability measurements were conducted on a Waters Acquity UPLC BEH C18 column (130 Å, 1.7 μm, 3 mm × 50 mm) on an Agilent 1260 Infinity II system equipped with a Flexible pump, a 1260 VWD UV–vis detector and the LC–MSD system. Chromatograms were evaluated at a wavelength of 220 nm. Milli-Q water (mobile phase A) and acetonitrile (mobile phase B), both containing 0.1% formic acid, were used as eluents. The flow rate was consistent at 0.6 mL/min for all measurements using the following gradient: 0–0.5 min A 95:5 B, 0.5–6.0 min linear gradient to A 5:95 B, 6.0–7.0 min A 5:95 B, 7.0–7.1 min linear gradient to A 95:5 B, 7.1–8.0 min A 95:5 B.

[2] = Serum pharmacokinetics (platinum, ICP-MS) in CT26-bearing Balb/c mice; details: serum platinum
Method: CT26 cells (5 × 10^5 in 50 μL serum-free medium) were injected subcutaneously (s.c.) into the right flank of male Balb/c mice. […] The blood, tumor and organ collection followed the study design in Figure A. Briefly, to assess serum platinum levels, blood was collected after 5 min, 30 min, 5 h and 24 h (2 mice per time point) via the facial vein. The serum was separated by centrifugation (two times 10 min at 900 g) after 10 min clotting at room temperature. […] All collected samples were stored at −20 °C and further processed for platinum measurements via ICP-MS as follows: HNO3 (67–69%, suprapur for trace metal analysis, NORMATOM; Distributor: VWR international, Austria) and conc. H2O2 suprapur (Merck, 30%) were used without further purification. Digestion of tissue (approximately 15–30 mg gravimetrically weighted) was performed with 2 mL of approximately 20% HNO3 and 100 μL H2O2 using an open vessel graphite digestion system (coated graphite heating plate, coated sample holder-top for 25 mL vials, PFA vials and PFA lids; Labter, ODLAB; Distributor: AHF Analysentechnik AG; Germany). Digested samples were diluted in Milli-Q water (18.2 MΩ cm, Milli-Q Advantage, Darmstadt, Germany). For the ICP-MS analysis, platinum and rhenium standards were derived from CPI International (Amsterdam, The Netherlands). The total platinum content was determined with a quadrupole-based Agilent 7800 ICP-MS instrument (Agilent Technologies, Tokyo, Japan) equipped with the Agilent SPS 4 autosampler (Agilent Technologies, Tokyo, Japan) and a MicroMist nebulizer at a sample uptake rate of approximately 0.2 mL/min. An RF power of 1550 W was used as well as nickel cones. Argon was used as plasma gas (15 L/min) and as carrier gas (∼1.1 L/min). The dwell time was set to 0.1 s and the measurements were performed in 6 replicates with 100 sweeps. Rhenium served as internal standard for platinum. The Agilent MassHunter software package (Workstation Software, version C.01.04) was used for data processing.
As platinum was measured in serum, equimolar administered doses were adjusted to correspond to platinum (0.0227 mmol, 4.42 mg platinum). The area under the “concentration”–time curve (AUC) was determined from time 0 to infinity (AUCPt_0‑∞) and from time 0 to 24 h (AUCPt_0–24, based on the last observed sample at 24 h; linear-log trapezoidal calculation method). The terminal slope (λ z ) was determined based on the last two (out of four) measurements (times 5 h and 24 h).

albumin (mouse serum) = biological target: T2, albumin (mouse serum) (Mus musculus, UniProt P07724); experiment: SEC-ICP-MS albumin binding in mouse serum; assay type: in vitro ADME; details: for Pt195 in HMWF (albumin-bound) / Pt195 in LMWF: 100 µM, 37 °C
T2 construct: The serum was separated by centrifugation (two times 10 min at 900 g) after 10–20 min clotting at room temperature; from tissue; host or cells: serum of Balb/c mice
T2 sequence (P07724 25-608): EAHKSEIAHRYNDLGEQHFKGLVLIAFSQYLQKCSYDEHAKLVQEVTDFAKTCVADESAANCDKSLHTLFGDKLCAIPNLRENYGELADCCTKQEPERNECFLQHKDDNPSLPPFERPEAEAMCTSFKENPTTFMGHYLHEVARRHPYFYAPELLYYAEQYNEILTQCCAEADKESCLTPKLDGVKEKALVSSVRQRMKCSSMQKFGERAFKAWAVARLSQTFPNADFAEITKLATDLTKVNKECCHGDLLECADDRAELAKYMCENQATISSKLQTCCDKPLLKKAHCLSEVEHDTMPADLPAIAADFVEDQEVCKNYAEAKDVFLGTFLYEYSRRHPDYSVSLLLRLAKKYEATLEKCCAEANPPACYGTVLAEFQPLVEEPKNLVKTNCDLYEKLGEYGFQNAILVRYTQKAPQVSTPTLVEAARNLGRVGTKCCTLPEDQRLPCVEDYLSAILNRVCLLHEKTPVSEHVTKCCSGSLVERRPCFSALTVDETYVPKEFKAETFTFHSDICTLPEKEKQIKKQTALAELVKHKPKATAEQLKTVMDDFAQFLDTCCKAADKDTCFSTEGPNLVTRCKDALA
Method: (§2) Blood of Bab/c mice was collected under anesthesia via heart puncture. […] Human serum was purchased from Sigma-Aldrich. In order to guarantee a stable pH, all sera were buffered with 150 mM phosphate to pH 7.4 by dissolving the necessary amounts of Na2HPO4 and NaH2PO4 directly in the serum. […] The samples were then incubated in the autosampler at 37 °C and analyzed every hour for 4 or 5 h and after 24 h. Between each sample a pure water blank was measured. For measurements with 10 min intervals the same procedure was followed, but the blank measurements were omitted. For SEC-ICP-MS measurements an Agilent 1260 Infinity system coupled to an Agilent 7800 ICP-HRMS equipped with a dynamic reaction cell was used. Oxygen (purity 5.5, Messer Austria GmbH, Gumpoldskirchen, Austria) was used as reaction gas.

albumin (human serum) = biological target: T3, albumin (human serum) (Homo sapiens, UniProt P02768); experiment: SEC-ICP-MS albumin binding in human serum; assay type: in vitro ADME; details: for Pt195 in HMWF (albumin-bound) / Pt195 in LMWF: 100 µM, 37 °C
T3 construct: Human serum was purchased from Sigma-Aldrich; tissue Sigma-Aldrich; host or cells: human serum
T3 sequence (P02768 25-609): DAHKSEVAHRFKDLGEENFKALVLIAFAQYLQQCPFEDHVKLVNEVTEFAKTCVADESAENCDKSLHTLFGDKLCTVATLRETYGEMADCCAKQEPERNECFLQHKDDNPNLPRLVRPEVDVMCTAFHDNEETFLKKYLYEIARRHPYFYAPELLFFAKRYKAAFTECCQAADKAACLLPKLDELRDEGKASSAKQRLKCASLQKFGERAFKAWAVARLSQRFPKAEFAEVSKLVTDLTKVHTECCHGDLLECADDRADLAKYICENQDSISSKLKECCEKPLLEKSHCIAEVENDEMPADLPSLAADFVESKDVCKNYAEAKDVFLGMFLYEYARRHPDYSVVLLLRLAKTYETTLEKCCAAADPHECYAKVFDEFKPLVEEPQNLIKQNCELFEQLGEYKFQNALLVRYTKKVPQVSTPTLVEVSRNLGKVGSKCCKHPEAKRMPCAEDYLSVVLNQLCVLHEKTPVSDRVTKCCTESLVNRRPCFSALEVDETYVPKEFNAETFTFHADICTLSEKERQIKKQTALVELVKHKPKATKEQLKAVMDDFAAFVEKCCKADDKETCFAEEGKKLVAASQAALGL
Method: as §2

albumin = biological target: T4, albumin (Homo sapiens, UniProt P02768); experiment: SEC-ICP-MS with single serum protein solution: albumin; assay type: binding; details: 200 μM albumin, 100 μM compound, 100 mM PB pH 7.4, 37 °C, 2 h
T4 construct: purchased Sigma-Aldrich A8763
T4 sequence (P02768 25-609): as above
Method: as §1

apotransferrin = biological target: T5, apotransferrin (Homo sapiens, UniProt P02787); experiment: SEC-ICP-MS with single serum protein solution: apotransferrin; assay type: binding; details: 200 μM apotransferrin, 100 μM compound, 100 mM PB pH 7.4, 37 °C, 2 h
T5 construct: purchased Sigma-Aldrich T1147
T5 sequence (P02787 20-698): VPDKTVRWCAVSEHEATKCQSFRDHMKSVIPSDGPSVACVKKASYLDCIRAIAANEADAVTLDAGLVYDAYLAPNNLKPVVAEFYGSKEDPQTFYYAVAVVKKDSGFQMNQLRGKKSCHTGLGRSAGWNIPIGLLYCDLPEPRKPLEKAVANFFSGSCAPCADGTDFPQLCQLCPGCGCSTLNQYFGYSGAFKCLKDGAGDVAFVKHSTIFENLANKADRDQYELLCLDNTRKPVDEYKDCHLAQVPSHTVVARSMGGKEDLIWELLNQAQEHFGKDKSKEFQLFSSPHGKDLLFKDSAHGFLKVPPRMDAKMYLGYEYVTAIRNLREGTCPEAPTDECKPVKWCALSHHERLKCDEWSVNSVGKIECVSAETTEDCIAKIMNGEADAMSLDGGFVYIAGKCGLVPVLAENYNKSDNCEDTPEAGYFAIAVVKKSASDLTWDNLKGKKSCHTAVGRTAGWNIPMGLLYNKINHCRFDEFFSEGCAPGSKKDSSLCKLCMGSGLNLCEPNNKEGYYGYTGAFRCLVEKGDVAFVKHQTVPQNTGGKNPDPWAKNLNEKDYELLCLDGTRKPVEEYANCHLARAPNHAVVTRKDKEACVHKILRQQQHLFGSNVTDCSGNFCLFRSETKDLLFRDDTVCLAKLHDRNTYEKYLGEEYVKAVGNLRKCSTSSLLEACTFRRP
Method: as §1

[3] = pH 7.4, 10 min intervals, 0 min
[4] = pH 7.4, 10 min intervals, 10 min
[5] = pH 7.4, 10 min intervals, 20 min
[6] = pH 7.4, 10 min intervals, 30 min
[7] = pH 7.4, 10 min intervals, 40 min
[8] = pH 7.4, 10 min intervals, 50 min
[9] = pH 7.4, 10 min intervals, 60 min

Platinum in the HMWF (protein-bound) (IgG): < 5%
Platinum in the HMWF (protein-bound) (α1-antitrypsin): 20%
Intact compound after 25 h ([1]; 20 mM HEPES, pH 7.4, 20 °C): stable
Intact compound after 25 h ([1]; 20 mM MOPS, pH 7.4, 20 °C): stable
Intact compound after 25 h ([1]; 100 mM PB, pH 5.5, 20 °C): stable
Intact compound after 25 h ([1]; 100 mM PB, pH 6.5, 20 °C): stable
Intact compound after 25 h ([1]; 100 mM PB, pH 7.4, 20 °C): 97%
Hydrolytic stability in all tested conditions ([1]; PB pH 5.5, 6.5, 7.4, HEPES and MOPS pH 7.4, 20 °C, 25 h): stable
Cmax ([2]; measured at tmax=0.08 h, single i.v. dose 4.42 mg/kg Pt): 4.61 mg/kg
Percentage of AUCPt_0-∞ extrapolated from tlast to infinity ([2]; tlast=24 h): 45.6%
Half-life ([2]; terminal half-life, i.v.): 21.9 h
CL ([2]; total body clearance, single i.v. dose 4.42 mg/kg Pt): 0.0685 kg/h/kg
Vz ([2]; volume of distribution based on the terminal phase, i.v.): 2.17 kg/kg
Pt195 in HMWF (albumin-bound) (albumin (mouse serum); [3]): 2%
Pt195 in LMWF (albumin (mouse serum); [3]): 98%
Pt195 in HMWF (albumin-bound) (albumin (mouse serum); [4]): 18%
Pt195 in LMWF (albumin (mouse serum); [4]): 82%
Pt195 in HMWF (albumin-bound) (albumin (mouse serum); [5]): 32%
Pt195 in LMWF (albumin (mouse serum); [5]): 68%
Pt195 in HMWF (albumin-bound) (albumin (mouse serum); [6]): 43%
Pt195 in LMWF (albumin (mouse serum); [6]): 57%
Pt195 in HMWF (albumin-bound) (albumin (mouse serum); [7]): 52%
Pt195 in LMWF (albumin (mouse serum); [7]): 48%
Pt195 in HMWF (albumin-bound) (albumin (mouse serum); [8]): 58%
Pt195 in LMWF (albumin (mouse serum); [8]): 42%
Pt195 in HMWF (albumin-bound) (albumin (mouse serum); [9]): 63%
Pt195 in LMWF (albumin (mouse serum); [9]): 37%
Pt195 in LMWF (albumin (mouse serum); pH 7.4, 1 h intervals, 0 h): 99%
Pt195 in HMWF (albumin-bound) (albumin (mouse serum); pH 7.4, 1 h intervals, 1 h): 65%
Pt195 in LMWF (albumin (mouse serum); pH 7.4, 1 h intervals, 1 h): 35%
Pt195 in HMWF (albumin-bound) (albumin (mouse serum); pH 7.4, 1 h intervals, 2 h): 78% and ~80%
Pt195 in LMWF (albumin (mouse serum); pH 7.4, 1 h intervals, 2 h): 22%
Pt195 in HMWF (albumin-bound) (albumin (mouse serum); pH 7.4, 1 h intervals, 3 h): 82%
Pt195 in LMWF (albumin (mouse serum); pH 7.4, 1 h intervals, 3 h): 18%
Pt195 in HMWF (albumin-bound) (albumin (mouse serum); pH 7.4, 1 h intervals, 4 h): 82%
Pt195 in LMWF (albumin (mouse serum); pH 7.4, 1 h intervals, 4 h): 18%
Pt195 in HMWF (albumin-bound) (albumin (mouse serum); pH 7.4, 1 h intervals, 24 h): 70%
Pt195 in LMWF (albumin (mouse serum); pH 7.4, 1 h intervals, 24 h): 30%
Maximum albumin binding (albumin (mouse serum); reached after several hours): 82%
Pt195 in HMWF (albumin-bound) (albumin (human serum); pH 7.4, 0 h): 0%
Pt195 in LMWF (albumin (human serum); pH 7.4, 0 h): 100%
Pt195 in HMWF (albumin-bound) (albumin (human serum); pH 7.4, 1 h): 34%
Pt195 in LMWF (albumin (human serum); pH 7.4, 1 h): 66%
Pt195 in HMWF (albumin-bound) (albumin (human serum); pH 7.4, 2 h): 50%
Pt195 in LMWF (albumin (human serum); pH 7.4, 2 h): 50%
Pt195 in HMWF (albumin-bound) (albumin (human serum); pH 7.4, 3 h): 59%
Pt195 in LMWF (albumin (human serum); pH 7.4, 3 h): 41%
Pt195 in HMWF (albumin-bound) (albumin (human serum); pH 7.4, 4 h): 63%
Pt195 in LMWF (albumin (human serum); pH 7.4, 4 h): 37%
Pt195 in HMWF (albumin-bound) (albumin (human serum); pH 7.4, 5 h): 66%
Pt195 in LMWF (albumin (human serum); pH 7.4, 5 h): 34%
Pt195 in HMWF (albumin-bound) (albumin (human serum); pH 7.4, 24 h): 59%
Pt195 in LMWF (albumin (human serum); pH 7.4, 24 h): 41%
Maximum albumin binding (albumin (human serum); reached after several hours): 66%
Platinum in the HMWF (protein-bound) (albumin): 26%
Platinum in the HMWF (protein-bound) (apotransferrin): < 5%
Structure (SMILES): CC(=O)[O][Pt-2]12([O]C(=O)NCCOCCOCCOCCOC(=O)C3=CCCCC3S(=O)(=O)Nc3ccc(F)cc3F)([NH2+]C3CCCCC3[NH2+]1)[O]C(=O)C(=O)[O]2 (mixture of isomers) [DFSA-Ox-OAc, (OC-6–34)-Acetato[(1R,2R)-1,2-cyclohexane-1,2-diamino][(1-(6-(N-(2,4-difluorophenyl)-sulfamoyl)-cyclohex-1-en-1-yl)-1-oxo-2,5,8,11-tetraoxatridecan-13-yl)-carbamato]-oxalato platinum(IV)]
